Test: xn = mol fraction of the nth substance listed
Details: 101 kPa, Liquid; for viscosity: Capillary tube (Ostwald / Ubbelohde) method; for mass density: Vibrating tube method; for speed of sound: automatically measured using an Anton Paar DSA 5000 instrument

CC(C)CCCC(C)CCCC(C)CCCCC(C)CCCC(C)CCCC(C)C (configuration not stated) [2,6,10,15,19,23-hexamethyltetracosane] + CC(C)CO
Details | mass density, 298.15 K [kg/m3] | mass density, 303.15 K [kg/m3] | mass density, 308.15 K [kg/m3] | speed of sound, 298.15 K [m/s] | speed of sound, 303.15 K [m/s] | speed of sound, 308.15 K [m/s] | viscosity, 298.15 K [mPa·s] | viscosity, 303.15 K [mPa·s] | viscosity, 308.15 K [mPa·s]
x2 = 0.0803 | 804.648 | 801.388 | 798.13 | 1377 | 1359.1 | 1341.4 | 23.81 | 18.82 | 15.28
x2 = 0.1032 | 804.528 | 801.259 | 797.982 | 1375.6 | 1357.7 | 1340 | 22.85 | 18.11 | 14.72
x2 = 0.1672 | 804.219 | 800.916 | 797.596 | 1371.4 | 1353.4 | 1335.6 | 20.71 | 16.5 | 13.45
x2 = 0.2045 | 804.051 | 800.733 | 797.401 | 1368.7 | 1350.8 | 1332.9 | 19.78 | 15.78 | 12.85
x2 = 0.2551 | 803.824 | 800.484 | 797.129 | 1364.9 | 1347.2 | 1329.2 | 18.76 | 14.97 | 12.18
x2 = 0.3201 | 803.546 | 800.183 | 796.807 | 1359.9 | 1341.8 | 1324 | 17.7 | 14.12 | 11.47
x2 = 0.417 | 803.131 | 799.716 | 796.307 | 1351.3 | 1333.4 | 1315.5 | 16.34 | 12.99 | 10.54
x2 = 0.4978 | 802.728 | 799.277 | 795.831 | 1343.1 | 1325.1 | 1307.2 | 15.11 | 12 | 9.757
x2 = 0.6316 | 801.934 | 798.413 | 794.872 | 1325.5 | 1307.7 | 1290.1 | 12.54 | 9.98 | 8.196
x2 = 0.7005 | 801.422 | 797.855 | 794.26 | 1313.6 | 1295.9 | 1278.1 | 10.9 | 8.721 | 7.217
x2 = 0.8028 | 800.494 | 796.852 | 793.147 | 1289.2 | 1271.7 | 1254.1 | 8.199 | 6.648 | 5.581
x2 = 0.8482 | 800.015 | 796.317 | 792.582 | 1274.6 | 1257.1 | 1239.6 | 6.959 | 5.693 | 4.802
x2 = 0.9095 | 799.392 | 795.551 | 791.791 | 1248.9 | 1231.6 | 1214.3 | 5.361 | 4.404 | 3.728
x2 = 0.9448 | 799.012 | 795.162 | 791.339 | 1229.5 | 1212.5 | 1195.4 | 4.53 | 3.703 | 3.115

CCCCCCCCCCCCCCCC [hexadecane] + CC(C)CO
Details | mass density, 298.15 K [kg/m3] | mass density, 303.15 K [kg/m3] | mass density, 308.15 K [kg/m3] | speed of sound, 298.15 K [m/s] | speed of sound, 303.15 K [m/s] | speed of sound, 308.15 K [m/s] | viscosity, 298.15 K [mPa·s] | viscosity, 303.15 K [mPa·s] | viscosity, 308.15 K [mPa·s]
x2 = 0.0505 | 770.506 | 766.982 | 763.479 | 1333.6 | 1314.5 | 1296.1 | 2.807 | 2.494 | 2.233
x2 = 0.108 | 770.704 | 767.145 | 763.586 | 1328.2 | 1309.5 | 1291.1 | 2.658 | 2.345 | 2.102
x2 = 0.1539 | 770.945 | 767.37 | 763.784 | 1324.2 | 1305.5 | 1287 | 2.601 | 2.277 | 2.023
x2 = 0.2202 | 771.403 | 767.797 | 764.189 | 1318.4 | 1299.8 | 1281.3 | 2.576 | 2.246 | 1.975
x2 = 0.2709 | 771.834 | 768.215 | 764.58 | 1313.8 | 1295.1 | 1276.6 | 2.596 | 2.235 | 1.952
x2 = 0.3389 | 772.519 | 768.878 | 765.22 | 1307.3 | 1288.7 | 1270.2 | 2.638 | 2.252 | 1.946
x2 = 0.4112 | 773.437 | 769.755 | 766.075 | 1299.9 | 1281.3 | 1262.8 | 2.672 | 2.292 | 1.967
x2 = 0.5043 | 774.946 | 771.22 | 767.482 | 1289.8 | 1271.2 | 1252.8 | 2.694 | 2.296 | 1.985
x2 = 0.5989 | 776.918 | 773.158 | 769.37 | 1277.8 | 1259.3 | 1241 | 2.676 | 2.295 | 1.998
x2 = 0.6938 | 779.505 | 775.707 | 771.873 | 1263.6 | 1245.3 | 1227.4 | 2.643 | 2.274 | 1.984
x2 = 0.8115 | 783.946 | 780.177 | 776.274 | 1241.5 | 1223.8 | 1206.2 | 2.673 | 2.28 | 2
x2 = 0.8638 | 786.74 | 782.888 | 778.972 | 1229.5 | 1211.9 | 1194.4 | 2.756 | 2.322 | 2.009
x2 = 0.9037 | 789.326 | 785.457 | 781.543 | 1219 | 1201.6 | 1184.3 | 2.874 | 2.379 | 2.046
x2 = 0.938 | 792.003 | 788.12 | 784.196 | 1209.3 | 1192.2 | 1175.2 | 3.023 | 2.469 | 2.082
